Laboratory results reported in the NIST ThermoML archive (doi:10.1021/je500433d).
Where “and” joins values, the source holds several entries; their conditions need not be identical. Equal values may be shown once. ± gives the expanded uncertainty stated by the source.

Conditions: Liquid, Alternating current cell with electrodes

[Be+2].[Cl-].[Cl-] [beryllium chloride]
electrical conductivity (693.15 K): 74.7 ± 5 S/m | electrical conductivity (695.15 K): 80.5 ± 4.4 S/m | electrical conductivity (698.65 K): 87.7 ± 5.1 S/m | electrical conductivity (701.65 K): 96.1 ± 5.9 S/m | electrical conductivity (705.65 K): 107 ± 7.6 S/m | electrical conductivity (711.65 K): 132 ± 8.4 S/m | electrical conductivity (714.65 K): 143 ± 8.7 S/m | electrical conductivity (719.65 K): 165 ± 9.3 S/m | electrical conductivity (721.65 K): 174 ± 9.4 S/m | electrical conductivity (724.65 K): 186 ± 9.2 S/m | electrical conductivity (726.15 K): 193 ± 12 S/m | electrical conductivity (728.15 K): 202 ± 13 S/m | electrical conductivity (735.65 K): 253 ± 15 S/m | electrical conductivity (738.15 K): 270 ± 16 S/m | electrical conductivity (739.65 K): 288 ± 17 S/m | electrical conductivity (741.65 K): 297 ± 18 S/m | electrical conductivity (744.65 K): 327 ± 20 S/m | electrical conductivity (746.15 K): 335 ± 20 S/m | electrical conductivity (747.15 K): 348 ± 19 S/m | electrical conductivity (750.15 K): 376 ± 24 S/m | electrical conductivity (752.15 K): 398 ± 23 S/m | electrical conductivity (755.15 K): 437 ± 17 S/m | electrical conductivity (759.65 K): 454 ± 19 S/m | electrical conductivity (761.15 K): 488 ± 21 S/m | electrical conductivity (763.15 K): 505 ± 29 S/m | electrical conductivity (765.15 K): 531 ± 29 S/m | electrical conductivity (766.35 K): 545 ± 32 S/m | electrical conductivity (767.35 K): 572 ± 33 S/m | electrical conductivity (770.15 K): 610 ± 26 S/m | electrical conductivity (772.85 K): 636 ± 27 S/m | electrical conductivity (775.15 K): 670 ± 33 S/m | electrical conductivity (777.65 K): 707 ± 23 S/m | electrical conductivity (781.65 K): 730 ± 32 S/m | electrical conductivity (783.65 K): 763 ± 30 S/m | electrical conductivity (786.15 K): 824 ± 41 S/m | electrical conductivity (787.15 K): 836 ± 42 S/m | electrical conductivity (788.15 K): 851 ± 40 S/m | electrical conductivity (790.15 K): 887 ± 37 S/m | electrical conductivity (793.15 K): 935 ± 34 S/m | electrical conductivity (795.15 K): 954 ± 40 S/m | electrical conductivity (795.65 K): 966 ± 41 S/m | electrical conductivity (797.15 K): 1010 ± 41 S/m | electrical conductivity (801.65 K): 1090 ± 37 S/m | electrical conductivity (807.65 K): 1160 ± 37 S/m | electrical conductivity (809.65 K): 1180 ± 38 S/m | electrical conductivity (822.65 K): 1390 ± 42 S/m

[Cl][Pb][Cl] [lead(2+) dichloride]
electrical conductivity (783.15 K): 150 ± 3.2 S/m | electrical conductivity (800.15 K): 159 ± 3.3 S/m | electrical conductivity (824.15 K): 170 ± 3.5 S/m | electrical conductivity (854.15 K): 185 ± 3.8 S/m | electrical conductivity (883.15 K): 197 ± 4 S/m | electrical conductivity (913.15 K): 210 ± 4.3 S/m | electrical conductivity (943.15 K): 221 ± 4.5 S/m | electrical conductivity (972.15 K): 233 ± 4.7 S/m | electrical conductivity (1001.1 K): 244 ± 4.9 S/m | electrical conductivity (1030.2 K): 254 ± 5.1 S/m | electrical conductivity (1058.2 K): 263 ± 5.3 S/m | electrical conductivity (1090.2 K): 272 ± 5.5 S/m | electrical conductivity (1118.2 K): 279 ± 5.6 S/m | electrical conductivity (1149.2 K): 286 ± 5.7 S/m | electrical conductivity (1177.2 K): 292 ± 5.8 S/m | electrical conductivity (1210.2 K): 298 ± 6 S/m | electrical conductivity (1230.2 K): 302 ± 6.1 S/m | electrical conductivity (1254.2 K): 309 ± 6.2 S/m | electrical conductivity (1279.2 K): 315 ± 6.3 S/m | electrical conductivity (1297.2 K): 318 ± 6.4 S/m | electrical conductivity (1320.2 K): 321 ± 6.4 S/m

[Cl-].[Cl-].[Zn+2] [zinc chloride]
electrical conductivity (558.15 K): 0.0363 ± 0.0042 S/m | electrical conductivity (568.15 K): 0.0568 ± 0.0052 S/m | electrical conductivity (578.15 K): 0.0874 ± 0.0076 S/m | electrical conductivity (588.15 K): 0.131 ± 0.0095 S/m | electrical conductivity (598.15 K): 0.179 ± 0.016 S/m | electrical conductivity (618.15 K): 0.36 ± 0.03 S/m | electrical conductivity (638.15 K): 0.646 ± 0.051 S/m | electrical conductivity (681.15 K): 1.86 ± 0.09 S/m | electrical conductivity (717.15 K): 3.93 ± 0.15 S/m | electrical conductivity (739.15 K): 5.57 ± 0.2 S/m | electrical conductivity (756.65 K): 7.13 S/m | electrical conductivity (814.65 K): 14.4 ± 0.41 S/m | electrical conductivity (814.95 K): 14.4 ± 0.41 S/m | electrical conductivity (858.65 K): 21.9 ± 0.57 S/m | electrical conductivity (879.15 K): 26.3 ± 0.66 S/m | electrical conductivity (893.15 K): 28.8 ± 0.73 S/m | electrical conductivity (936.15 K): 38.8 ± 0.91 S/m | electrical conductivity (970.15 K): 47 ± 1.1 S/m | electrical conductivity (974.65 K): 48.1 ± 1.1 S/m | electrical conductivity (981.15 K): 49.8 ± 1.1 S/m | electrical conductivity (1005.1 K): 55.4 ± 1.2 S/m | electrical conductivity (1030.2 K): 61.4 ± 1.3 S/m | electrical conductivity (1062.2 K): 69.2 ± 1.5 S/m | electrical conductivity (1078.2 K): 73.5 S/m and 74.2 S/m | electrical conductivity (1092.2 K): 76.8 ± 1.6 S/m | electrical conductivity (1100.2 K): 79.2 ± 1.7 S/m | electrical conductivity (1110.2 K): 81.2 ± 1.7 S/m | electrical conductivity (1114.2 K): 82.8 ± 1.7 S/m | electrical conductivity (1128.2 K): 85.7 ± 1.9 S/m | electrical conductivity (1131.2 K): 87.1 ± 1.8 S/m | electrical conductivity (1143.2 K): 89 ± 1.8 S/m | electrical conductivity (1144.7 K): 90.3 ± 1.9 S/m | electrical conductivity (1163.2 K): 93.5 ± 2.2 S/m | electrical conductivity (1167.2 K): 95.9 ± 2.3 S/m | electrical conductivity (1183.7 K): 100 ± 2.1 S/m | electrical conductivity (1195.7 K): 103 ± 2.1 S/m | electrical conductivity (1214.2 K): 107 ± 2.2 S/m | electrical conductivity (1225.2 K): 110 ± 2.2 S/m | electrical conductivity (1236.2 K): 113 ± 2.3 S/m | electrical conductivity (1245.7 K): 115 ± 2.3 S/m | electrical conductivity (1259.7 K): 118 ± 2.4 S/m | electrical conductivity (1279.7 K): 122 ± 2.5 S/m | electrical conductivity (1297.2 K): 126 ± 2.5 S/m | electrical conductivity (1306.2 K): 127 ± 2.6 S/m | electrical conductivity (1316.7 K): 129 ± 2.6 S/m | electrical conductivity (1324.2 K): 131 ± 2.6 S/m | electrical conductivity (1341.7 K): 134 ± 2.7 S/m | electrical conductivity (1350.2 K): 135 ± 2.7 S/m | electrical conductivity (1359.7 K): 137 ± 2.8 S/m | electrical conductivity (1376.7 K): 139 ± 2.8 S/m | electrical conductivity (1386.7 K): 141 ± 2.8 S/m | electrical conductivity (1399.2 K): 142 ± 2.9 S/m | electrical conductivity (1406.2 K): 143 ± 2.9 S/m | electrical conductivity (1414.2 K): 144 ± 2.9 S/m | electrical conductivity (1421.2 K): 145 ± 2.9 S/m
